In article PMC6950567, “Evaluation of Marine Diindolinonepyrane in Vitro and in Vivo: Permeability Characterization in Caco-2 Cells Monolayer and Pharmacokinetic Properties in Beagle Dogs” (Marine Drugs, 2019):
Entries after “also recorded” stand apart in the source; their conditions may differ. Like-named read-outs stand apart in the source and are kept apart here.

How the values were obtained:
[1] = parameters: method as in PMID 24216275; conditions: rats, cited from earlier work
[2] = test system: Caco-2 cells monolayer; assay: Caco-2 cells monolayer absorption and bidirectional transport experiment; format: in vitro ADME, human
Description: (§1) The samples included three control drugs (fenoterol, propranolol, and digoxin) and 2,5-BHPA. […] For transfer in the AP→BL direction, 0.075 mL drug solution was added to the AP side as the supply pool, and 0.25 mL HBSS solution was added to the BL side as the receiving pool. In the BL→AP direction, 0.25 mL compound solution was added to the BL side as the supply pool, and 0.075 mL HBSS solution was added to the AP side as the receiving pool. The transwell plate was then cultured in an incubator at 37 °C for 2 h. Samples on the AP side and BL side were collected, respectively. Then, acetonitrile containing an internal label was added to each upper chamber to lyse transport membranes. The total recovery was calculated by collecting the amount of lead compound absorbed on the membrane surface or accumulated in the cell. Finally, the concentration of each sample was calculated as the ratio of the peak area between the compound and the inner target through mass spectrum analysis (API 4000).
(§2) Papp = (dCr/dt) × Vr/(A × C0)(2) where dCr/dt is the cumulative compound concentration per unit of time (µM/s); Vr is the volume in the receiving hole (mL); A is the transport membrane area; and C0 is the compound initiation concentration (µM).

[3] = as above; format: in vitro ADME, human; conditions: human
Description: as §1, §2

[4] = Pharmacokinetics after intravenous injection in beagle dogs; format: in vivo; conditions: for Cmax / MRT / clearance / half-life: male, dog, whole blood
Description: Male beagle dogs (SPF, 10.2–10.8 kg, aged 2 years) were provided by the Xingang Experimental Animal Co., Ltd. (Shanghai, China). All dogs were fed with standard laboratory food and water ad libitum at least 3 days prior to the experiments in an environmentally controlled room (12 h dark-light cycle; ~25 °C, 60% humidity, GB14925-2001). All protocols and procedures were approved by the Institutional Animal Care and Use Committee of Shanghai Ocean University (Approval number: 13-0012). The blood and tissues of the dogs were removed while the dogs were ether anesthetized. Their plasma was collected from the fossa orbitalis vein. Every effort was made to minimize animal pain and suffering.
2,5-BHPA was dissolved in normal saline with NaHCO3 as a solvent (2,5-BHPA/NaHCO3, m/m, 1:1), which was agitated overnight on a magnetic stirrer. Subsequently, it was diluted to different concentrations, filtered, and stored in a refrigerator at 4 °C. The dose was adjusted according to the body weight of the beagle dogs in a volume of 200 µL, and 2,5-BHPA was administered by intravenous injection (7.5, 5.0, and 2.5 mg/kg). Subcutaneous injection in the forearm was used in the experiment.
Nine dogs were randomly divided into three groups (n = 3) and fasted for 24 h with water ad libidum. 2,5-BHPA was administered by intravenous injection (7.5, 5.0, and 2.5 mg/kg). The volume of the three sample levels was identical. The blood samples of 200 µL were drawn at 0, 1, 5, 15, 30, 40, 60, 120, and 240 min after drug treatment, and the samples were immediately stored with 1.8 mL of methanol (methanol:blood = 9:1, v/v). The samples were mixed and centrifuged at 5000× g for 15 min at RT, and the supernatants were filtered for HPLC analysis.
The data were processed with Microsoft Excel 2013 edited by Microsoft (Seattle, WA, USA) and SPSS V25.0 edited by SPSS (Chicago, IL, USA). PKsolver V2.0 edited by China Pharmaceutical University (Nanjing, China) was used to calculate the pharmacokinetic parameters and the compartment model. The image was processed with Origin 9.0 software edited by Origin Lab (Northampton, MA, USA).

[5] = test system: fibrinolytic enzyme; parameters: method as in earlier work; conditions: cited from earlier work
[6] = 5 µM, 0.1% bull serum albumin added
[7] = 15 µM, 0.1% bull serum albumin added
[8] = 25 µM, 0.1% bull serum albumin added
[9] = beagle dogs, intravenous, 2.5 mg·kg^−1
[10] = beagle dogs, intravenous, 5.0 mg·kg^−1
[11] = beagle dogs, intravenous, 7.5 mg·kg^−1

Recoveries AP to BL ([2]; 0.5 μM, no BSA): 8.745 ± 0.155%
Recoveries BL to AP ([2]; 0.5 μM, no BSA): 25.54 ± 1.55%
Total Recoveries AP to BL ([2]; 0.5 μM, no BSA): 35.77 ± 1.29%
Total Recoveries BL to AP ([2]; 0.5 μM, no BSA): 25.48 ± 1.13%
transport mechanism in the Caco-2 model ([2]; 2 µM to 25 µM): may involve passive diffusion
Recoveries AP to BL ([2]; 2 μM, no BSA): 13.419 ± 0.566%
Recoveries BL to AP ([2]; 2 μM, no BSA): 47.16 ± 1.32%
Total Recoveries AP to BL ([2]; 2 μM, no BSA): 39.67 ± 1.47%
Total Recoveries BL to AP ([2]; 2 μM, no BSA): 47.69 ± 2.10%
Recoveries AP to BL [2, 6]: 85.52 ± 2.34%
Recoveries BL to AP [2, 6]: 96.32 ± 5.15%
Total Recoveries AP to BL [2, 6]: 92.83 ± 3.44%
Total Recoveries BL to AP [2, 6]: 96.41 ± 3.52%
Recoveries AP to BL ([2]; 5 μM, no BSA): 26.76 ± 1.02%
Recoveries BL to AP ([2]; 5 μM, no BSA): 52.42 ± 2.20%
Total Recoveries AP to BL ([2]; 5 μM, no BSA): 52.34 ± 4.34%
Total Recoveries BL to AP ([2]; 5 μM, no BSA): 53.02 ± 2.01%
Recoveries AP to BL [2, 7]: 84.85 ± 3.36%
Recoveries BL to AP [2, 7]: 96.18 ± 6.56%
Total Recoveries AP to BL [2, 7]: 92.83 ± 4.26%
Total Recoveries BL to AP [2, 7]: 96.97 ± 4.32%
Recoveries AP to BL [2, 8]: 82.25 ± 2.28%
Recoveries BL to AP [2, 8]: 89.52 ± 4.19%
Total Recoveries AP to BL [2, 8]: 90.91 ± 4.63%
Total Recoveries BL to AP [2, 8]: 89.63 ± 3.26%
permeability classification ([2]; Papp ≤ 2.5 (×10^−6 cm·s^−1) indicated low permeability): low permeability
efflux ratio at 2 h, 0.5 µM ([3]; Caco-2, 0.5 μM, no BSA): 1.13
Papp A→B at 2 h, 0.5 µM ([3]; Caco-2, 0.5 μM, no BSA, 2 h, read-out: Mean Papp AP to BL): 0.493 ± 0.016 ×10⁻⁶ cm/s
Papp B→A at 2 h, 0.5 µM ([3]; Caco-2, 0.5 μM, no BSA, 2 h, read-out: Mean Papp BL to AP): 0.555 ± 0.09 ×10⁻⁶ cm/s
efflux ratio at 2 h, 2 µM ([3]; Caco-2, 2 μM, no BSA): 1.55
Papp A→B at 2 h, 2 µM ([3]; Caco-2, 2 μM, no BSA, 2 h, read-out: Mean Papp AP to BL): 0.048 ± 0.006 ×10⁻⁶ cm/s
Papp B→A at 2 h, 2 µM ([3]; Caco-2, 2 μM, no BSA, 2 h, read-out: Mean Papp BL to AP): 0.065 ± 0.005 ×10⁻⁶ cm/s
efflux ratio at 2 h, 5 µM ([3]; Caco-2, 5 µM, 0.1% bull serum albumin added): 1.56
Papp A→B at 2 h, 5 µM ([3]; Caco-2, 5 µM, 0.1% bull serum albumin added, read-out: Mean Papp AP to BL): 0.097 ± 0.005 ×10⁻⁶ cm/s
Papp B→A at 2 h, 5 µM ([3]; Caco-2, 5 µM, 0.1% bull serum albumin added, read-out: Mean Papp BL to AP): 0.153 ± 0.012 ×10⁻⁶ cm/s
efflux ratio at 2 h, 5 µM ([3]; Caco-2, 5 μM, no BSA): 1.06
Papp A→B at 2 h, 5 µM ([3]; Caco-2, 5 μM, no BSA, 2 h, read-out: Mean Papp AP to BL): 0.044 ± 0.003 ×10⁻⁶ cm/s
Papp B→A at 2 h, 5 µM ([3]; Caco-2, 5 μM, no BSA, 2 h, read-out: Mean Papp BL to AP): 0.043 ± 0.004 ×10⁻⁶ cm/s
efflux ratio at 2 h, 15 µM ([3]; Caco-2, 15 µM, 0.1% bull serum albumin added): 2.91
Papp A→B at 2 h, 15 µM ([3]; Caco-2, 15 µM, 0.1% bull serum albumin added, read-out: Mean Papp AP to BL): 0.045 ± 0.002 ×10⁻⁶ cm/s
Papp B→A at 2 h, 15 µM ([3]; Caco-2, 15 µM, 0.1% bull serum albumin added, read-out: Mean Papp BL to AP): 0.132 ± 0.035 ×10⁻⁶ cm/s
efflux ratio at 2 h, 25 µM ([3]; Caco-2, 25 µM, 0.1% bull serum albumin added): 1.49
Papp A→B at 2 h, 25 µM ([3]; Caco-2, 25 µM, 0.1% bull serum albumin added, read-out: Mean Papp AP to BL): 0.146 ± 0.009 ×10⁻⁶ cm/s
Papp B→A at 2 h, 25 µM ([3]; Caco-2, 25 µM, 0.1% bull serum albumin added, read-out: Mean Papp BL to AP): 0.216 ± 0.031 ×10⁻⁶ cm/s
Papp at 2 h ([3]; Caco-2, text summary of Table 2, 0.1% BSA added, read-out: Papp, AP→BL or BL→AP direction): ≤ 2.5 ×10⁻⁶ cm/s
recovery at 2 h ([3]; Caco-2, text summary of Table 2, 0.1% BSA added, read-out: total recovery rate): > 90%
Papp at 2 h ([3]; Caco-2, text summary, no BSA, over the concentrations tested, read-out: Papp range): 0.04 to 0.49 ×10⁻⁶ cm/s
recovery at 2 h ([3]; Caco-2, text summary, no BSA, over the concentrations tested, read-out: total recovery rate AP→BL): 35.8 to 52.4%
recovery at 2 h ([3]; Caco-2, text summary, no BSA, over the concentrations tested, read-out: total recovery rate BL→AP): 25.9 to 53%
K10 [4, 9]: 0.055 ± 0.021 min⁻¹
K12 [4, 9]: 0.009 ± 0.004 min⁻¹
K21 [4, 9]: 0.018 ± 0.001 min⁻¹
K10 [4, 10]: 0.075 ± 0.012 min⁻¹
K12 [4, 10]: 0.017 ± 0.002 min⁻¹
K21 [4, 10]: 0.018 ± 0.001 min⁻¹
K10 [4, 11]: 0.051 ± 0.015 min⁻¹
K12 [4, 11]: 0.007 ± 0.004 min⁻¹
K21 [4, 11]: 0.017 ± 0.003 min⁻¹
half-life (T1/2) in dogs compared with rats ([4]; dogs (this study) versus rats [14]): about two times longer than in rats
dose linearity of pharmacokinetics ([4]; dogs, intravenous, dose range 2.5-7.5 mg/kg, from CL and MRT): linear pharmacokinetic characteristics
Cmax [4, 9]: 13600 ± 2760 ng/mL
MRT [4, 9]: 28.7 min
clearance [4, 9]: 9.2 ± 0.6 mL/min/kg
half-life [4, 9]: 49 ± 2 min
Cmax [4, 10]: 48600 ± 5530 ng/mL
MRT [4, 10]: 26.2 min
clearance [4, 10]: 7.1 ± 0.8 mL/min/kg
half-life [4, 10]: 48 ± 2 min
Cmax [4, 11]: 56500 ± 6230 ng/mL
MRT [4, 11]: 28.2 min
clearance [4, 11]: 6.2 ± 0.4 mL/min/kg
half-life [4, 11]: 49 ± 2 min
SMILES: CC(C)=CCCC(C)=CCCC1(C)Oc2c(c(O)cc3c2CN(CCCC(C(=O)O)N2Cc4c(cc(O)c5c4OC(C)(CCC=C(C)CCC=C(C)C)C(O)C5)C2=O)C3=O)CC1O (centres unmarked) [2,5-BHPA, 2,5-Bis-[8-(4,8-dimethyl-nona-3,7-dienyl)-5,7-dihydroxy-8-methyl-3-keto-1,2,7,8-tertahydro-6H-pyran[a]isoindol-2-yl]-pentanoic acid]
half-life ([1]; intravenous (IV) bolus): ~ 22 min
detection in the brain [1]: not the case in rats
tissue with the highest concentration level (liver) [1]: same as in rats
compartment model of plasma concentration-time curves ([4]; beagle dogs, intravenous, 7.5, 5.0, 2.5 mg·kg^−1, weight = 1/c^2): fitted well to a two-compartment model; also recorded: consistent with the two-compartment model
fibrinolytic activity [5]: has been shown to have fibrinolytic activity
